Test results as given in patent publication US12428406B2 (PMV Pharmaceuticals, Inc., priority 2019, dated 2025).

Biological target: T1, p53 Y220C (Homo sapiens, UniProt P04637, Y220C)
T1 construct: The recombinant protein was a truncation mutant containing only amino acids 94-312 of p53; made in house; host or cells: E. coli
Test: In vitro DNA binding activity assay (HTRF / TR-FRET): stabilization of p53 Y220C and increase of its DNA binding activity
Assay type: biochemical
Settings: recombinant His-tagged p53 Y220C DNA binding domain (aa 94-312), biotin-labeled consensus DNA, incubated at 27° C. or 29° C. for 60 min
Outline: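 Compounds from 4.5 mM DMSO stocks, 3-fold serial dilutions; room-temperature incubations of 15 and 20 min. SC150 = concentration raising DNA binding by 50% over no-compound control.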

T1 sequence (P04637 94-312, change not shown): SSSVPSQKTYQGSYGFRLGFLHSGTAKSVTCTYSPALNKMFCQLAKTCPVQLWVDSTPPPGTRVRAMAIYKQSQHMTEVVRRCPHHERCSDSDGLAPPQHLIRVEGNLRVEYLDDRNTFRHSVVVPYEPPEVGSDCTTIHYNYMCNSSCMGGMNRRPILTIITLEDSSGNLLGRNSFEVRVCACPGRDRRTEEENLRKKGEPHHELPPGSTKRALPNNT

SC150 (concentration of the compound required to increase the DNA binding activity by 50%) | SMILES
++ (++ = 0.05 μM ≤ SC150 < 0.1 μM) | CN1CCC(Nc2cccc3c2cc(C#CCNc2cccc(S(C)(=O)=O)c2)n3CC(F)(F)F)CC1 [Compound 507A, 2-{3-[(3-methanesulfonylphenyl)amino]prop-1-yn-1-yl}-N-(1-methylpiperidin-4-yl)-1-(2,2,2-trifluoroethyl)-1H-indol-4-amine]
+ (+ = 0 μM ≤ SC150 < 0.05 μM) | CN1CCC(Nc2cccc3c2cc(C#CCNc2ccc(CN4CCOCC4)cc2)n3CC(F)(F)F)CC1 [Compound 508A, N-(1-methylpiperidin-4-yl)-2-[3-({4-[(morpholin-4-yl)methyl]phenyl}amino)prop-1-yn-1-yl]-1-(2,2,2-trifluoroethyl)-1H-indol-4-amine]
+ (+ = 0 μM ≤ SC150 < 0.05 μM) | COc1cc(-c2nccs2)ccc1NCC#Cc1cc2c(NC3CCN(C)CC3)cccc2n1CC(F)(F)F [Compound 509A, 2-(3-{[2-methoxy-4-(1,3-thiazol-2-yl)phenyl]amino}prop-1-yn-1-yl)-N-(1-methylpiperidin-4-yl)-1-(2,2,2-trifluoroethyl)-1H-indol-4-amine]
+ (+ = 0 μM ≤ SC150 < 0.05 μM) | COCCn1cc(-c2ccc(NCC#Cc3cc4c(NC5CCN(C)CC5)cccc4n3CC(F)(F)F)c(OC)c2)cn1 [Compound 510A, 2-[3-({2-methoxy-4-[1-(2-methoxyethyl)-1H-pyrazol-4-yl]phenyl}amino)prop-1-yn-1-yl]-N-(1-methylpiperidin-4-yl)-1-(2,2,2-trifluoroethyl)-1H-indol-4-amine]
+ (+ = 0 μM ≤ SC150 < 0.05 μM) | COc1cc(C(=O)N2CC3(CCOCC3)C2)ccc1NCC#Cc1cc2c(NC3CCN(C)CC3)cccc2n1CC(F)(F)F [Compound 511A, 2-{3-[(2-methoxy-4-{7-oxa-2-azaspiro[3.5]nonane-2-carbonyl}phenyl)amino]prop-1-yn-1-yl}-N-(1-methylpiperidin-4-yl)-1-(2,2,2-trifluoroethyl)-1H-indol-4-amine]
++ (++ = 0.05 μM ≤ SC150 < 0.1 μM) | COc1cc(Cl)ccc1NCC#Cc1cc2c(NC3CCN(C)CC3)cccc2n1CC(F)(F)F [Compound 512A, 2-{3-[(4-chloro-2-methoxyphenyl)amino]prop-1-yn-1-yl}-N-(1-methylpiperidin-4-yl)-1-(2,2,2-trifluoroethyl)-1H-indol-4-amine]
+ (+ = 0 μM ≤ SC150 < 0.05 μM) | COc1cc(C(N)=O)c(F)cc1NCC#Cc1cc2c(NC3CCN(C)CC3)cccc2n1CC(F)(F)F [Compound 514A, 2-fluoro-5-methoxy-4-[(3-{4-[(1-methylpiperidin-4-yl)amino]-1-(2,2,2-trifluoroethyl)-1H-indol-2-yl}prop-2-yn-1-yl)amino]benzamide]
++ (++ = 0.05 μM ≤ SC150 < 0.1 μM) | COc1cc(C(F)(F)F)ccc1NCC#Cc1cc2c(NC3CCN(C)CC3)cccc2n1CC(F)(F)F [Compound 515A, 2-(3-{[2-methoxy-4-(trifluoromethyl)phenyl]amino}prop-1-yn-1-yl)-N-(1-methylpiperidin-4-yl)-1-(2,2,2-trifluoroethyl)-1H-indol-4-amine]
+ (+ = 0 μM ≤ SC150 < 0.05 μM) | CNC(=O)c1cc(OC)c(NCC#Cc2cc3c(NC4CCN(C)CC4)cccc3n2CC(F)(F)F)cc1F [Compound 516A, 2-fluoro-5-methoxy-N-methyl-4-[(3-{4-[(1-methylpiperidin-4-yl)amino]-1-(2,2,2-trifluoroethyl)-1H-indol-2-yl}prop-2-yn-1-yl)amino]benzamide]
+++ (+++ = 0.1 μM ≤ SC150 < 0.2 μM) | COc1cc(S(C)(=O)=O)ccc1NCC#Cc1cc2c(NC3CCN(C)CC3)cccc2n1CC1CO1 (centres unmarked) [Compound 517A, 2-{3-[(4-methanesulfonyl-2-methoxyphenyl)amino]prop-1-yn-1-yl}-N-(1-methylpiperidin-4-yl)-1-[(oxiran-2-yl)methyl]-1H-indol-4-amine]
++++ (++++ = 0.2 μM ≤ SC150 < 1 μM) | COc1cc(S(C)(=O)=O)cc(F)c1NCC#Cc1cc2c(NC3CCN(C)CC3)cccc2n1CC(F)(F)F [Compound 519A]
+++ (+++ = 0.1 μM ≤ SC150 < 0.2 μM) | COc1cc(S(C)(=O)=O)ccc1NCC#Cc1c(C)c2c(NC3CCN(C)CC3)cccc2n1CC(F)(F)F [Compound 520A, 2-{3-[(4-methanesulfonyl-2-methoxyphenyl)amino]prop-1-yn-1-yl}-3-methyl-N-(1-methylpiperidin-4-yl)-1-(2,2,2-trifluoroethyl)-1H-indol-4-amine]
+ (+ = 0 μM ≤ SC150 < 0.05 μM) | COc1cc(S(C)(=O)=O)c(F)cc1NCC#Cc1cc2c(NC3CCN(C)CC3)cccc2n1CC(F)(F)F [Compound 522A, 2-{3-[(5-fluoro-4-methanesulfonyl-2-methoxyphenyl)amino]prop-1-yn-1-yl}-N-(1-methylpiperidin-4-yl)-1-(2,2,2-trifluoroethyl)-1H-indol-4-amine]
+ (+ = 0 μM ≤ SC150 < 0.05 μM) | CN1CCC(Nc2cccc3c2cc(C#CCNc2ccc(S(C)(=O)=O)s2)n3CC(F)(F)F)CC1 [Compound 523A]
+ (+ = 0 μM ≤ SC150 < 0.05 μM) | CNC(=O)c1ccc(NCC#Cc2cc3c(NC4CCN(C)CC4)cccc3n2CC(F)(F)F)s1 [Compound 524A, N-methyl-5-((3-(4-((1-methylpiperidin-4-yl)amino)-1-(2,2,2-trifluoroethyl)-1H-indol-2-yl)prop-2-yn-1-yl)amino)thiophene-2-carboxamide]
+ (+ = 0 μM ≤ SC150 < 0.05 μM) | CN1CCC(Nc2cccc3c2cc(C#CCNc2ccc(C(=O)N(C)C)s2)n3CC(F)(F)F)CC1 [Compound 525A, N,N-dimethyl-5-((3-(4-((1-methylpiperidin-4-yl)amino)-1-(2,2,2-trifluoroethyl)-1H-indol-2-yl)prop-2-yn-1-yl)amino)thiophene-2-carboxamide]
++ (++ = 0.05 μM ≤ SC150 < 0.1 μM) | COc1cc(S(C)(=O)=O)ccc1NCC#Cc1cc2c(N[C@H]3CCN(C)C[C@H]3OC)cccc2n1CC(F)(F)F [Compound 531A, 2-{3-[(4-methanesulfonyl-2-methoxyphenyl)amino]prop-1-yn-1-yl}-N-[(3R,4S)-3-methoxy-1-methylpiperidin-4-yl]-1-(2,2,2-trifluoroethyl)-1H-indol-4-amine]
++ (++ = 0.05 μM ≤ SC150 < 0.1 μM) | COc1cc(S(C)(=O)=O)ccc1NCC#Cc1cc2c(N[C@@H]3CCN(C)C[C@@H]3OC)cccc2n1CC(F)(F)F [Compound 532A, 2-{3-[(4-methanesulfonyl-2-methoxyphenyl)amino]prop-1-yn-1-yl}-N-[(3S,4R)-3-methoxy-1-methylpiperidin-4-yl]-1-(2,2,2-trifluoroethyl)-1H-indol-4-amine]
+ (+ = 0 μM ≤ SC150 < 0.05 μM) | CCN1CCC(Nc2cccc3c2cc(C#CCNc2ccc(S(C)(=O)=O)cc2OCF)n3CC(F)(F)F)CC1 [Compound 534A, N-(1-ethylpiperidin-4-yl)-2-(3-{[2-(fluoromethoxy)-4-methanesulfonylphenyl]amino}prop-1-yn-1-yl)-1-(2,2,2-trifluoroethyl)-1H-indol-4-amine]
+ (+ = 0 μM ≤ SC150 < 0.05 μM) | CCN1CCC(Nc2cccc3c2cc(C#CCNc2ccc(C(=O)NC)cc2OC)n3CC(F)(F)F)CC1 [Compound 535A, 4-[(3-{4-[(1-ethylpiperidin-4-yl)amino]-1-(2,2,2-trifluoroethyl)-1H-indol-2-yl}prop-2-yn-1-yl)amino]-3-methoxy-N-methylbenzamide]
+ (+ = 0 μM ≤ SC150 < 0.05 μM) | CCN1CCC(Nc2cccc3c2cc(C#CCNc2ccc(S(C)(=O)=O)cc2OCC#N)n3CC(F)(F)F)CC1 [Compound 536A]
+ (+ = 0 μM ≤ SC150 < 0.05 μM) | CCN1CCC(Nc2cccc3c2cc(C#CCNc2ccc(S(C)(=O)=O)cc2OC)n3CC(F)(F)F)CC1 [Compound 537A]
+ (+ = 0 μM ≤ SC150 < 0.05 μM) | CCN1CCC(Nc2cccc3c2cc(C#CCNc2ccc(S(N)(=O)=O)cc2OC)n3CC(F)(F)F)CC1 [Compound 538A, 4-[(3-{4-[(1-ethylpiperidin-4-yl)amino]-1-(2,2,2-trifluoroethyl)-1H-indol-2-yl}prop-2-yn-1-yl)amino]-3-methoxybenzene-1-sulfonamide]
+ (+ = 0 μM ≤ SC150 < 0.05 μM) | CNC(=O)c1ccc(NCC#Cc2cc3c(NC4CCN(C(C)C)CC4)cccc3n2CC(F)(F)F)c(OC)c1 [Compound 539A, 3-methoxy-N-methyl-4-{[3-(4-{[1-(propan-2-yl)piperidin-4-yl]amino}-1-(2,2,2-trifluoroethyl)-1H-indol-2-yl)prop-2-yn-1-yl]amino}benzamide]
+ (+ = 0 μM ≤ SC150 < 0.05 μM) | CC(C)N1CCC(Nc2cccc3c2cc(C#CCNc2ccc(S(C)(=O)=O)cc2OCC#N)n3CC(F)(F)F)CC1 [Compound 540A]
+ (+ = 0 μM ≤ SC150 < 0.05 μM) | CC(C)N1CCC(Nc2cccc3c2cc(C#CCNc2ccc(S(C)(=O)=O)cc2OCF)n3CC(F)(F)F)CC1 [Compound 541A, 2-(3-{[2-(fluoromethoxy)-4-methanesulfonylphenyl]amino}prop-1-yn-1-yl)-N-[1-(propan-2-yl)piperidin-4-yl]-1-(2,2,2-trifluoroethyl)-1H-indol-4-amine]
